A short description of data set [1]: Solubility of the drug substance in water, solvents or simulated GI media. It counts as physicochemical.
The conditions of data set [2]: cited from earlier work.
In another data set the test system is Leishmania. The following applies: visceral leishmaniasis, IV therapy; cited from earlier work.
For data set [3] the following is noted: oral; cited from earlier work.

Each structure is given as a SMILES string. Like-named read-outs stand apart in the source and are kept apart here.

As to `C[C@@H]1[C@H](O)[C@@H](C)/C=C/C=C/C=C/C=C/C=C/C=C/C=C/[C@H](O[C@@H]2O[C@H](C)[C@@H](O)[C@H](N)[C@@H]2O)C[C@@H]2O[C@](O)(C[C@@H](O)C[C@@H](O)[C@H](O)CC[C@@H](O)C[C@@H](O)CC(=O)O[C@H]1C)C[C@H](O)[C@H]2C(=O)O` (relative stereo) [amphotericin B, [1R-(1R*,3S*,5R*,6R*,9R*,11R*,15S*,16R*,17R*,18S*,19E,21E,23E,25E,27E,29E,31E,33R*,35S*,36R*,37S,)]-33-[(3-amino-3,6-dideoxy-β-D-mannopyranosyl)oxy]1,3,5,6,9,11,17,37-octahydroxy-15,16,18-trimethyl-13-oxo-14,39-dioxabicyclo-[33.3.1]nonatriaconta-19,21,23,25,27,29,31-heptaene-36-carboxylic acid], the “AmpB solubility in aqueous solution” value in data set [1] (aqueous solution (pH 7)) is listed as “negligible”. Moreover, the “Solubility of AmpB neat powder in simulated GI media” value in data set [1] (simulated gastric and intestinal fluids) was “not soluble”. Besides, the “Solubility of crystalline substance in water” value in data set [2] (water) is “insoluble”. Moreover, in the data set with Leishmania, the Cure rate is listed as 97%. Further, the Bioavailability entry in data set [3] is “negligible”.
On to `CC(=O)O[C@@]12CO[C@@H]1C[C@H](O)[C@@]1(C)C(=O)[C@H](O)C3=C(C)[C@@H](OC(=O)[C@H](O)[C@@H](NC(=O)OC(C)(C)C)c4ccccc4)C[C@@](O)([C@@H](OC(=O)c4ccccc4)[C@H]21)C3(C)C` [docetaxel], for which the Solubility in water in data set [2] (water) was 10 to 25 µg/mL.
In the case of `Clc1ccc(COC(Cn2ccnc2)c2ccc(Cl)cc2Cl)cc1` (centres unmarked) [econazole], the Solubility in ethanol in data set [2] (ethanol) was not above 20000 µg/mL. Besides, the Solubility in water in data set [2] (water, 19-66° F.) was less than 1000 µg/mL.

The values above are taken from patent US8592382B2, “Formulations for the oral administration of therapeutic agents and related methods” (The University of British Columbia, priority 2007, dated 2013).
